Results published in patent US20260232851A1, “METHODS FOR THE DETECTION AND DIAGNOSIS OF CANCERS ASSOCIATED WITH OVEREXPRESSION OF PSMA RECEPTOR” (CLARITY PHARMACEUTICALS LIMITED, priority 2023, published 2026).
Entries after “also recorded” stand apart in the source; their conditions may differ.

Target: T1, PSMA receptor (Homo sapiens, UniProt Q04609)
T1 construct: localises at sites that overexpress the PSMA receptor and are indicative of a cancer; from tissue; host or cells: Primary prostate cancer and metastatic lesions (lymph node, bone, prostatic bed) in living patients
T1 sequence (Q04609 whole entry): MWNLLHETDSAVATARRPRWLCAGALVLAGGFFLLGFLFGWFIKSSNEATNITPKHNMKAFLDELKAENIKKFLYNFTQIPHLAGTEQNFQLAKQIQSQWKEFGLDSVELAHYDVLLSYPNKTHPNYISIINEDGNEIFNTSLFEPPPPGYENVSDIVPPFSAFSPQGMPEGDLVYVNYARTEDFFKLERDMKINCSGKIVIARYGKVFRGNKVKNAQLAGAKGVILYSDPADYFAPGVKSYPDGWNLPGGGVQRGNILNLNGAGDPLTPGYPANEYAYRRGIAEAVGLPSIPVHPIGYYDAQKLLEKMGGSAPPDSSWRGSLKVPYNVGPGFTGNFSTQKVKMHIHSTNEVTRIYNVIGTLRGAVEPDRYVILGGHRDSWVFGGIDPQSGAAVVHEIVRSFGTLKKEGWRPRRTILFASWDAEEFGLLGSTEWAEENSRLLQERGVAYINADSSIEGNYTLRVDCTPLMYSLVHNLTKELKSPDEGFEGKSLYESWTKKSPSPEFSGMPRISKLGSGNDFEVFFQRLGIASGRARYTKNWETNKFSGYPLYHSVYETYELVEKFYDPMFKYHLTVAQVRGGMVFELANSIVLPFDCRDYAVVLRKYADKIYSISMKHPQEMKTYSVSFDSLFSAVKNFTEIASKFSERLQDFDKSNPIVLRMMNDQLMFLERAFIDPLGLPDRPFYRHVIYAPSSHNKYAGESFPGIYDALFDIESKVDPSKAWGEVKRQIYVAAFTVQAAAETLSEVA
Assay: Same-day (Day 0) versus next-day (Day 1) PET imaging of patients
Assay type: in vivo

[1] = next-day imaging, Day 1, same subject

Substance: Sar-bisPSMA [^64Cu-SAR-bisPSMA]
- Increase of SUVmax, next-day compared to same-day imaging (FIG. 7) (Day 1 vs Day 0): more than double
- SUVmax Day 1 relative to previous day (FIG. 9) (Day 1 vs same day): 4 times
- Average SUVmax for the bone and pelvic lymph node lesions (FIG. 11B) (following day imaging, same patient): 20.0
- Lesion visualisation on PET (words) (next-day imaging (Day 1), FIGS. 8-12, listed as 64Cu Sar-bisPSMA): clearly identified a lesion
- Lesion visualisation on PET (words) (next-day imaging (Day 1), FIGS. 8-12, listed as 64Cu-Sar-bisPSMA): identified by three readers; also recorded: more positive lesions; also recorded: only visualised with imaging on the following day; also recorded: additional positive lesions
- Lesion visualisation on PET (words) (next-day imaging (Day 1), FIGS. 8-12, listed as compound of Formula (I) complexed with ^64Cu): successfully identifies a lesion
- SUVmax of lesion (FIG. 9C) [1]: 17.5
- SUVmax of positive pelvic lymph node lesion (FIG. 7) [1]: 50.4
- Average SUVmax for the bone and pelvic lymph node lesions (FIG. 11A) (same day imaging, one patient): 9.8
- Lesion visualisation on PET (words) (same-day imaging (Day 0), FIGS. 8-9, listed as 64Cu Sar-bisPSMA): negative
- Lesion visualisation on PET (words) (same-day imaging (Day 0), FIGS. 8-9, listed as 64Cu-Sar-bisPSMA): less apparent; also recorded: not visualised
- Lesion visualisation on PET (words) (same-day imaging (Day 0), FIGS. 8-9, listed as compound of Formula (I) complexed with ^64Cu): does not clearly visualise a lesion
- SUVmax of positive pelvic lymph node lesion (FIG. 7) (same-day imaging, Day 0, one subject): 20.8
- SUVmax of lesion (FIG. 9B) (same-day imaging, same subject): 4.3
